Results: ChEMBL document CHEMBL4813985, “Lead optimization generates selenium-containing miconazole CYP51 inhibitors with improved pharmacological profile for the treatment of fungal infections” (Eur J Med Chem, 2021)
Converted amounts (≈) assume the structure as drawn.

Experiments:
Pichia kudriavzevii = test: Antifungal activity against Candida krusei AS2.1045 measured after 24 hrs by broth microdilution assay; format: functional
PC-3 = test: Cytotoxicity against human PC3 cells assessed as reduction in cell viability incubated for 96 hrs by MTT assay; format: cell-based; settings: PC-3, 96 h, read-out: IC50
[1] = Hemolytic activity in rabbit RBC assessed as hemolysis ratio at 1 ug/ml measured after 3 hrs by microplate reader assay relative to control; format: ADME, cell-based, Oryctolagus cuniculus, Erythrocyte; settings: rabbit red blood cells (erythrocytes), at 1 µg/mL, read-out: Activity
Candida albicans [2] = test: Antifungal activity against fluconazole-resistant Candida albicans 901 assessed as inhibition of microbial growth after 24 hrs by broth microdilution method; format: functional
Candida albicans [3] = test: Antifungal activity against fluconazole-resistant Candida albicans 17# assessed as inhibition of microbial growth after 24 hrs by broth microdilution method; format: functional
[Candida] zeylanoides = Antifungal activity against Candida zeylanoides CMGCC2.3739 measured after 24 hrs by broth microdilution assay; format: functional; settings: Dujonia zeylanoides
Candida albicans [4] = test: Antifungal activity against fluconazole-resistant Candida albicans 632 assessed as inhibition of microbial growth after 24 hrs by broth microdilution method; format: functional
MCF-10A = test: Cytotoxicity against human MCF-10A cells assessed as reduction in cell viability incubated for 96 hrs by MTT assay; format: cell-based; settings: read-out: IC50
Candida albicans [5] = test: Antifungal activity against fluconazole-resistant Candida albicans 904 assessed as inhibition of microbial growth after 24 hrs by broth microdilution method; format: functional
[6] = Hemolytic activity in rabbit RBC assessed as hemolysis ratio at 2 ug/ml measured after 3 hrs by microplate reader assay relative to control; format: ADME, cell-based, Oryctolagus cuniculus, Erythrocyte; settings: rabbit red blood cells (erythrocytes), at 2 µg/mL, read-out: Activity
Candida parapsilosis = test: Antifungal activity against Candida parapsilosis ATCC 22019 measured after 24 hrs by broth microdilution assay; format: functional; settings: Lodderomyces parapsilosis
Nakaseomyces glabratus = test: Antifungal activity against Candida glabrata measured after 24 hrs by broth microdilution assay; format: functional
MDA-MB-231 = test: Cytotoxicity against human MDA-MB-231 cells assessed as reduction in cell viability incubated for 96 hrs by MTT assay; settings: MDA-MB-231, 96 h
Aspergillus fumigatus = test: Antifungal activity against Aspergillus fumigatus CMGCC3.7795 measured after 72 hrs by broth microdilution assay; format: functional
Candida albicans [7] = test: Potency index, ratio of fluconazole MIC to test compound MIC for Candida albicans CPCC400616 measured after 24 hrs by broth microdilution assay; format: functional
Candida albicans [8] = test: Antifungal activity against Candida albicans CPCC400616 measured after 24 hrs by broth microdilution assay; format: functional
Cryptococcus neoformans = test: Antifungal activity against Cryptococcus neoformans CMGCC2.3161 measured after 72 hrs by broth microdilution assay; format: functional
Candida albicans [9] = test: Antifungal activity against Candida albicans ATCC SC5314 measured after 24 hrs by broth microdilution assay; format: functional
[10] = Hemolytic activity in rabbit RBC assessed as hemolysis ratio at 4 ug/ml measured after 3 hrs by microplate reader assay relative to control; format: ADME, cell-based, Oryctolagus cuniculus, Erythrocyte; settings: rabbit red blood cells (erythrocytes), at 4 µg/mL, read-out: Activity
Candida albicans [11] = test: Antifungal activity against fluconazole-resistant Candida albicans CaR assessed as inhibition of microbial growth after 24 hrs by broth microdilution method; format: functional
[12] = Hemolytic activity in rabbit RBC assessed as hemolysis ratio at 8 ug/ml measured after 3 hrs by microplate reader assay relative to control; format: ADME, cell-based, Oryctolagus cuniculus, Erythrocyte; settings: rabbit red blood cells (erythrocytes), at 8 µg/mL, read-out: Activity
[13] = Hemolytic activity in rabbit RBC assessed as hemolysis ratio at 16 ug/ml measured after 3 hrs by microplate reader assay relative to control; format: ADME, cell-based, Oryctolagus cuniculus, Erythrocyte; settings: rabbit red blood cells (erythrocytes), at 16 µg/mL, read-out: Activity
HL-60 = test: Cytotoxicity against human HL-60 cells assessed as reduction in cell viability incubated for 96 hrs by MTT assay; format: cell-based; settings: HL-60, 96 h
Candida albicans [14] = test: Anti-biofilm activity in Candida albicans CPCC400616 assessed as inhibition of biofilm formation incubated for 24 hrs with 6 hrs precultured fungal suspension by XTT assay; format: functional
[15] = Metabolic stability in mouse liver microsomes assessed as clearance; format: ADME, Microsome; settings: read-out: CLH
Candida albicans [16] = test: Anti-biofilm activity in Candida albicans CPCC400616 assessed as inhibition of biofilm formation incubated for 24 hrs with 24 hrs precultured fungal suspension by XTT assay; format: functional
Candida albicans [17] = test: Anti-biofilm activity in Candida albicans CPCC400616 assessed as inhibition of biofilm formation incubated for 24 hrs with 1.5 hrs precultured fungal suspension by XTT assay; format: functional
Candida albicans [18] = test: Anti-biofilm activity in Candida albicans CPCC400616 assessed as inhibition of biofilm formation incubated for 24 hrs with 3 hrs precultured fungal suspension by XTT assay; format: functional
[19] = Metabolic stability in mouse liver microsomes assessed as half life; format: ADME, Microsome
Candida albicans [20] = test: Fungicidal activity against Candida albicans CPCC400616 assessed as fungal killing incubated for 48 hrs followed by culturing on PDA plate for 24 hrs; format: functional; settings: time 72 hrs

SMILES	MIC (Pichia kudriavzevii) [µg/mL]	IC50 (PC-3) [µM]	hemolysis at 3 h, 1 ug/ml [1] [%]	MIC (Candida albicans [2]) [µg/mL]	MIC (Candida albicans [3]) [µg/mL]	MIC ([Candida] zeylanoides) [µg/mL]	MIC (Candida albicans [4]) [µg/mL]	IC50 (MCF-10A) [µM]	MIC (Candida albicans [5]) [µg/mL]	hemolysis at 3 h, 2 ug/ml [6] [%]	MIC (Candida parapsilosis) [µg/mL]	MIC (Nakaseomyces glabratus) [µg/mL]	IC50 (MDA-MB-231) [µM]	MIC (Aspergillus fumigatus) [µg/mL]	Ratio (Candida albicans [7])	MIC (Candida albicans [8]) [µg/mL]	MIC (Cryptococcus neoformans) [µg/mL]	MIC (Candida albicans [9]) [µg/mL]	hemolysis at 3 h, 4 ug/ml [10] [%]	MIC (Candida albicans [11]) [µg/mL]	also measured
Cc1ccc(C)c([Se]C(Cn2ccnc2)c2ccc(Cl)cc2Cl)c1 (stereo not given)	0.5 (≈ 1.18 µM)	7.25	0	0.25	0.13	2 (≈ 4.71 µM)	0.5	27.2	0.25	0.89	0.5 (≈ 1.18 µM)	0.5 (≈ 1.18 µM)	6.61	16 (≈ 37.7 µM)	8	0.25 (≈ 0.589 µM)	0.5 (≈ 1.18 µM)	0.03 (≈ 0.0707 µM)	84.4	0.25	hemolysis at 3 h, 8 ug/ml [12]: 100%; hemolysis at 3 h, 16 ug/ml [13]: 100%; IC50 (HL-60): 6.95 µM
CCc1ccccc1[Se]C(Cn1ccnc1)c1ccc(F)cc1F (stereo not given)	0.06 (≈ 0.153 µM)	30.2	0	2	0.5	0.25 (≈ 0.639 µM)	1	28.1	0.5	0	0.03 (≈ 0.0767 µM)	0.5 (≈ 1.28 µM)	26.2	16 (≈ 40.9 µM)	8	0.06 (≈ 0.153 µM)	1 (≈ 2.56 µM)	0.03 (≈ 0.0767 µM)	93.6	0.5	MIC50 (Candida albicans [14]): > 128 µg/mL; MIC80 (Candida albicans [14]): > 128 µg/mL; CLint scaled [15]: 368 mL/min/kg; MIC50 (Candida albicans [16]): > 128 µg/mL; MIC80 (Candida albicans [16]): > 128 µg/mL; MIC50 (Candida albicans [17]): 8 µg/mL (≈ 20.4 µM); MIC80 (Candida albicans [17]): 128 µg/mL (≈ 327 µM); MIC50 (Candida albicans [18]): 16 µg/mL (≈ 40.9 µM); MIC80 (Candida albicans [18]): > 128 µg/mL; half-life [19]: 14.9 min; hemolysis at 3 h, 8 ug/ml [12]: 100%; hemolysis at 3 h, 16 ug/ml [13]: 100%; IC50 (HL-60): 16.9 µM; MFC99 (Candida albicans [20]): 0.25 µg/mL (≈ 0.639 µM)
Fc1cccc([Se]C(Cn2ccnc2)c2ccc(Cl)cc2Cl)c1 (stereo not given)	0.13 (≈ 0.314 µM)	20.4	0	1	1	0.25 (≈ 0.604 µM)	0.5	28.6	1	0	0.25 (≈ 0.604 µM)	1 (≈ 2.41 µM)	13.4	4 (≈ 9.66 µM)	8	0.25 (≈ 0.604 µM)	0.13 (≈ 0.314 µM)	0.06 (≈ 0.145 µM)	87.7	2	MIC50 (Candida albicans [14]): 128 µg/mL (≈ 309 µM); MIC80 (Candida albicans [14]): > 128 µg/mL; CLint scaled [15]: 531 mL/min/kg; MIC50 (Candida albicans [16]): > 128 µg/mL; MIC80 (Candida albicans [16]): > 128 µg/mL; MIC50 (Candida albicans [17]): 4 µg/mL (≈ 9.66 µM); MIC80 (Candida albicans [17]): 16 µg/mL (≈ 38.6 µM); MIC50 (Candida albicans [18]): 8 µg/mL (≈ 19.3 µM); MIC80 (Candida albicans [18]): 128 µg/mL (≈ 309 µM); half-life [19]: 10.3 min; hemolysis at 3 h, 8 ug/ml [12]: 94.6%; hemolysis at 3 h, 16 ug/ml [13]: 100%; IC50 (HL-60): 8.26 µM
